{"source": "patent US4996211A", "about": "“Substituted dibenzocycloheptenimines” (Merck Sharp & Dohme Ltd., priority 1987, dated 1991)", "note": "Structures can show the parent of a compound that is named as a salt."}
{"system": "tonic seizures induced by N-methyl-DL-aspartic acid (NMDLA)", "assay": "Antagonism of NMDLA-induced tonic seizures in mice", "format": "in vivo, mouse (male Swiss-Webster)", "settings": "Mus musculus, iv; i.v. 15 min before s.c. NMDLA (500 mg/kg); groups of 8 mice, observed 30 min; probit analysis", "protocol": "The compounds useful in this invention bind with a high affinity and in a reversible and saturable manner to membranes from rat brain cortex. In addition these compounds potently and selectively block responses to NMDA in a brain slice from rat cortex, and antagonise NMDA-induced seizures in the mouse.\nCompounds of the invention were examined for their ability to antagonise tonic seizures induced by N-methyl-DL-aspartic acid (NMDLA). Groups of 8 male Swiss-Webster mice (25-30 g) were injected intravenously with the test compound at various doses, 15 min before s.c. administration of NMDLA (500 mg/kg). […] ED50 values for the antagonism of the NMDLA induced tonic seizures were determined using probit analysis.", "units": {"ED50": "mg/kg"}}
{"molecule": "CC12NC(Cc3ccc(-c4ccccc4)cc31)c1ccccc12", "note": "(stereo not shown) [Example 6, 5-Methyl-3-phenyl-10,11-dihydro-5H-dibenzo-[a,d]cyclohepten-5,10-imine hydrochloride]", "ED50": "< 10"}
{"molecule": "CC12NC(Cc3ccc(CO)cc31)c1ccccc12", "note": "(stereo not shown) [Example 12, 3-HYdroxymethyl-5-methyl-10,11-dihydro-5H-dibenzo-[a,d]cyclohepten-5,10-imine]", "ED50": "< 10"}
{"molecule": "Cc1ccc2c(c1)C1(C)NC(C2)c2ccccc21", "note": "(stereo not shown) [Example 2, 3.5-Dimethyl-10,11-dihYdro-5H-dibenzo[a,d]cyclohepten-5,10-imine]", "ED50": "< 10"}
{"molecule": "Cc1ccc2c(c1)C1(C)NC2Cc2ccccc21", "note": "(stereo not shown) [Example 1, 5,7-Dimethyl-10.11-dihydro-5H-dibenzo[a,d]cyclohepten-5,10-imine]", "ED50": "< 10"}
